Test results from PMC10226132, “First-in-Class Selective Inhibitors of the Lysine Acetyltransferase KAT8” (Journal of Medicinal Chemistry, 2023).

Key:
KAT3B = molecular target: T1, KAT3B (Homo sapiens, UniProt Q09472); assay: HotSpot KAT assay, KAT3B; assay type: biochemical; settings: enzyme 1 nM, NI = no inhibition at 200 μM, mean ± SD of three independent experiments; for IC50: read-out: IC50 KAT3B (1 nM)
T1 construct: KAT3B (aa 1284–1672, 1 nM); purchased Reaction Biology Corporation
T1 sequence (Q09472 1284-1672): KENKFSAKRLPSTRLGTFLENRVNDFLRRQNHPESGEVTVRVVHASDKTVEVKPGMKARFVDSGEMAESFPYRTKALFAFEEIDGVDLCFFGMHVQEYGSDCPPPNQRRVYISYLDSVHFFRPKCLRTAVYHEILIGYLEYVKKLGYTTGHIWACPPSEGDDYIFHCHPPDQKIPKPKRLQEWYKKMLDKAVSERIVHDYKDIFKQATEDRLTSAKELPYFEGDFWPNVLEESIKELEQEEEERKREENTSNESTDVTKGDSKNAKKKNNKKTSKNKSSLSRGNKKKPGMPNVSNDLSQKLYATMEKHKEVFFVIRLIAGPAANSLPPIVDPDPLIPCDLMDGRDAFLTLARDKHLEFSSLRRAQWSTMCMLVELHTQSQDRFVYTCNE
Experimental: The effects of the compounds on other KATs were determined using the HotSpot KAT assay (Reaction Biology Corporation, Malvern, PA, USA) according to the supplier’s procedure. […] Histone peptide acetylation was assessed by liquid scintillation counting using a Tri-Carb 2800TR Liquid Scintillation Analyzer (Perkin Elmer). Experiments were performed in biological triplicates. Signal reduction compared to control was plotted (as inhibition percentage) as a function of compound concentration. In cases in which an IC50 was calculated, the values were fitted by nonlinear regression (GraphPad Prism 8.0).

H1299 cells = assay: MTT cell proliferation assay, H1299; assay type: cell-based, human; settings: for antiproliferative activity in H1299: 10, 25, 50, 100 μM, 72 h; for IC50: Homo sapiens, NCI-H1299, 72 h treatment, MTT
Source text: (§1) Human commercially available AML U937, breast cancer MCF7, lung adenocarcinoma NCI-H460, H1299 and A-549, glioblastoma U251, B lymphocyte AHH1 cell lines were maintained in compete 10% foetal bovine serum (FBS,) RPMI 1640 (Euroclone, Milan, IT) medium. Human commercially available colon cancer HCT116 and HT29 lines and cervix adenocarcinoma HeLa cells were maintained in compete 10% FBS Dulbecco’s Modified Eagle Medium (DMEM) high glucose medium (Euroclone). L-Glutamine, FBS, and penicillin streptomycin mixture added to medium were obtained from Euroclone. All cell lines were cultured at 37 °C in a humidified atmosphere of 5% CO2:95% air and were tested for mycoplasma contamination routinely by RT-PCR.
(§2) For analysis of cell proliferation, cells were plated in sextuplicate on 96-well plates in complete media. After 24 h, cells were exposed to different drugs for 72 h. The inhibitory effect of different drugs was assessed by MTT (Sigma, St. Louis, MO, USA) colorimetric assays as previously reported.[67] Aqueous DMSO (0.5% v/v) was used as a control (untreated). The results are reported as “viability of drug-treated cells/viability of untreated cells” × 100 and represent the average ±SD of three independent experiments. IC50 values were using fitted by nonlinear regression using GraphPad Prism 8.0.

MCF7 cells = assay: MTT cell proliferation assay, MCF7; assay type: cell-based, human; settings: 10, 25, 50, 100 μM, 72 h
Source text: as §1, §2

[1] = tested on: LC3 and p62 in HCT116 cells; assay: Western blot of autophagic markers in HCT116 cells; assay type: cell-based, human; settings: increasing doses, 48 h
Experimental: For WB experiments, the cells were lysed in RIPA buffer supplemented with 1× […] protease inhibitor cocktail (Sigma-Aldrich, S8830); 20 μg of total protein was resolved in 13.5% gels by SDS-PAGE. Then, the proteins were transferred to nitrocellulose membranes (Biorad Laboratories). Membranes were blocked for 1 h and incubated overnight with the appropriate primary antibody at 4 °C. After incubation, membranes were washed and incubated with the appropriate secondary antibody (Biorad Laboratories) for 1 h at room temperature. Following primary rabbit monoclonal antibodies H4K16Ac (1:1000, E2B8W, Rabbit mAb#13534, Cell Signalling Technology), KAT8 (1:1000, D5T3R Rabbit mAb #46862 Cell Signalling Technology), GAPDH (1:1000, sc-32233, Santa Cruz Biotechnologies), anti-LC3B (Sigma-Aldrich, L7543), anti-SQSTM1/p62 (Santa Cruz Biotechnology, sc-28,359), and anti-GAPDH (Santa Cruz Biotechnology, sc-32,233). Secondary antibodies: anti-mouse (Bio-Rad Laboratories, 1,706,515) or anti-rabbit (Bio-Rad Laboratories, 1,706,516) IgG-horseradish peroxidase-conjugated antibodies. Detection was performed by ECL Western Blotting Substrate (Biorad Laboratories). Images of blots were acquired through the ChemiDoc Imaging Systems (Biorad Laboratories). The band signals were quantified using ImageJ, and values were normalized to relative controls, depending on the analysis.

HCT116 cells = assay: MTT cell proliferation assay, HCT116; assay type: cell-based, human; settings: for antiproliferative activity in HCT116: 10, 25, 50, 100 μM, 72 h; for IC50: Homo sapiens, HCT-116, 72 h treatment, MTT
Source text: as §1, §2

U937 cells = assay: MTT cell proliferation assay, U937; assay type: cell-based, human; settings: for antiproliferative activity in U937: 10, 25, 50, 100 μM; for IC50: 72 h treatment, MTT
Source text: as §1, §2

H4K16Ac in HT29 cells = assay: Immunofluorescence of H4K16Ac in HT29 cells; assay type: cell-based, human; settings: 50 μM, 24 h, compared with control
Experimental: For IF analysis, 1 × 10^5 HT-29 cells were grown on sterile coverslips. After 24 h, cells were exposed to different compounds for 24 h. IF staining for different acetylated lysine residues of histone H3 (H3K27Ac) and H4 (H4K16Ac) were carried out on PFA-fixed cells blocked with 20% goat serum in PBS and incubated overnight at 4 °C with primary rabbit monoclonal antibodies histone H3K27Ac (D5E4, Rabbit mAb#8173) and H4K16Ac (E2B8W, Rabbit mAb#13534, Cell Signalling Technology). Primary antibodies were detected using rabbit anti-IgG secondary antibodies conjugated with Cy3 (Jackson Immunoresearch 711-165-152). DNA was stained using 0.05 μg/mL 4′,6-diamidino-2-phenylindole (DAPI). The samples were acquired using an Olympus AX70 (Olympus America Inc.) microscope. Serial Z stacks of 0.4 μm thickness were acquired, taking care to cover the entire cell volume. For quantification of fluorescence intensity signals, images of untreated or treated cells were analyzed and processed using opensource Cell Profiler 4.1.3 image analysis software (https://cellprofiler.org/) to measure fluorescence-integrated intensity values for antibody binding relating to individual cells as previously reported.[67]

Row | SMILES | IC50 (KAT3B) [µM] | antiproliferative activity in H1299 (H1299 cells) | IC50 (H1299 cells) [µM] | antiproliferative activity in MCF7 (MCF7 cells) | LC3-II/-I ratio and p62 autophagic markers (WB), HCT116 [1] | antiproliferative activity in HCT116 (HCT116 cells) | IC50 (HCT116 cells) [µM] | antiproliferative activity in U937 (U937 cells; 72 h) | IC50 (U937 cells; Homo sapiens, U-937) [µM] | reduction in H4K16Ac signal intensity (IF) (H4K16Ac in HT29 cells) | IC50 KAT3B (1 nM) (KAT3B) | inhibition at 50 µM (U937 cells; Homo sapiens, U-937, 50 μM, 72 h) [%] | inhibition at 100 µM (U937 cells; Homo sapiens, U-937, 100 μM, 72 h) [%]
1 | O=C(O)c1ccc(N2N=C(c3ccccc3)/C(=C/c3ccc[nH]3)C2=O)cc1 [Compound 34, (Z)-4-(4-((1H-Pyrrol-2-yl)methylene)-5-oxo-3-phenyl-4,5-dihydro-1H-pyrazol-1-yl)benzoic Acid] | > 200 | dose-dependent antiproliferative effects | 41.6 ± 6.8 | neither inhibitor had any effect | modulation of the LC3-II/-I ratio and p62 autophagic markers | dose-dependent antiproliferative effects | 46.6 ± 11.5 | dose-dependent antiproliferative effects | 51.7 ± 9.5 | more than 50% |  |  | 
2 | CC1=NN(c2ccc(C(=O)O)cc2)C(=O)/C1=C\c1ccc[nH]1 [Compound 19, (Z)-4-(4-((1H-Pyrrol-2-yl)methylene)-3-methyl-5-oxo-4,5-dihydro-1H-pyrazol-1-yl)benzoic Acid] | > 200 | dose-dependent antiproliferative effects | 52.1 ± 10.6 | neither inhibitor had any effect | modulation of the LC3-II/-I ratio and p62 autophagic markers | dose-dependent antiproliferative effects | 39.4 ± 8.2 | dose-dependent antiproliferative effects | 30.1 ± 1.7 | 80% | no inhibition at 200 μM | ~70 | > 80
